Article PMC3365614 (Cancer Chemotherapy and Pharmacology, 2012)

Assays:
[1] = for Plasma concentration, effect of flavopiridol: immediately prior to (24 h) vs end of 1-hr flavopiridol infusion (25 h) on day 2
ABCG2 = conditions: cited from earlier work
[2] = 1-hr infusions of flavopiridol as a single agent; cited from earlier work
[3] = assay type: in vivo, human
human serum proteins = conditions: cited from earlier work

Row | Structure (SMILES) | Plasma concentration, effect of flavopiridol [1] | AUC of the metabolite CGP74588, effect of flavopiridol ([1]; presence vs absence of flavopiridol, P=0.84) | ABCG2 substrate status (ABCG2) | flavopiridol clearance, previously reported [2] | mean flavopiridol clearance (per body surface area) ([3]; 1-hr infusions of 30, 45 or 60 mg/m^2 with 400 or 600 mg/day imatinib, cycle 1) | clearance ([3]; human, plasma, intravenous) | half-life ([3]; human, plasma, intravenous) | binding to human serum proteins (human serum proteins) | ABCG2 inhibition (ABCG2) | AUC of imatinib, lower in the presence of flavopiridol ([1]; on average, presence vs absence of flavopiridol, p=0.022)
1 | Cc1ccc(NC(=O)c2ccc(CN3CCNCC3)cc2)cc1Nc1nccc(-c2cccnc2)n1 [CGP74588] | increase | not significantly affected | – | – | – | – | – | – | – | –
2 | CN1CC[C@H](c2c(O)cc(O)c3c(=O)cc(-c4ccccc4Cl)oc23)[C@H](O)C1 [flavopiridol] | – | – | substrate | 13.8 L/hr/m^2 | 13.2 L/hr/m^2 | 427 mL/min | 2.33 ± 0.97 h | bind tightly | – | –
3 | Cc1ccc(NC(=O)c2ccc(CN3CCN(C)CC3)cc2)cc1Nc1nccc(-c2cccnc2)n1 [imatinib] | did not affect | – | – | – | – | – | – | – | inhibitor | 21%
